The values that follow come from ChEMBL document CHEMBL1123320, “Studies in potential filaricides. 18. Synthesis of 2,2'-disubstituted 5,5'-dibenzimidazolyl ketones and related compounds as potential anthelmintics” (1986).

Assay [1] deals with Mastomys natalensis. The experiment in a line: Filaricidal activity against Dipetalonema viteae in Mastomys at a dosage of 175 mg/kg x 5 administered subcutaneous at a day of 42. Format: functional.
The subject of assay [2] is Rattus norvegicus. The assay is described as follows: Filaricidal activity against Litomosoides carinii in cotton rats at a dosage of 6 mg/kg x 5 administered intraperitoneally. The following applies: route intraperitoneal. Format: functional.
Assay [3] has as its system Mastomys natalensis. The assay is described as follows: Filaricidal activity against Brugia malayi in Mastomys at a dosage of 50 mg/kg x 5 administered intraperitoneally at a day of 8. The following applies: route intraperitoneal. Format: functional.
The test system of assay [4] is Mastomys natalensis. The assay is described as follows: Filaricidal activity against Brugia malayi in Mastomys at a dosage of 50 mg/kg x 5 administered intraperitoneally at a day of 91. The class given is functional. The following applies: route intraperitoneal.
The subject of assay [5] is Mastomys natalensis. The experiment in a line: Filaricidal activity against Dipetalonema viteae in Mastomys at a dosage of 175 mg/kg x 5 administered subcutaneous. Format: functional.
Assay [6] concerns Mastomys natalensis. The assay is described as follows: Filaricidal activity against Dipetalonema viteae in Mastomys at a dosage of 175 mg/kg x 5 administered subcutaneous at a day of 21. The class given is functional.
Assay [7] relates to Mastomys natalensis. The experiment in a line: Filaricidal activity against Dipetalonema viteae in Mastomys at a dosage of 175 mg/kg x 5 administered subcutaneous at a day of 8. Format: functional.
The subject of assay [8] is Mastomys natalensis. The experiment in a line: Filaricidal activity against Brugia malayi in Mastomys at a dosage of 50 mg/kg x 5 administered intraperitoneally at a day of 21. Format: functional. The following applies: route intraperitoneal.
The test system of assay [9] is Mastomys natalensis. The assay is described as follows: Filaricidal activity against Brugia malayi in Mastomys at a dosage of 50 mg/kg x 5 administered intraperitoneally at a day of 42. The class given is functional. The following applies: route intraperitoneal.
Assay [10] is described as follows: Filaricidal activity against Litomosoides carinii in cotton rats at a dosage of 6 mg/kg x 5 administered intraperitoneally at a day of 8. The note with it: route intraperitoneal.
Assay [11] has as its system Mastomys natalensis. The assay is described as follows: Filaricidal activity against Brugia malayi in Mastomys at a dosage of 50 mg/kg x 5 administered intraperitoneally. The class given is functional. The following applies: route intraperitoneal.
For assay [12], the system named is Mastomys natalensis. The assay is described as follows: Filaricidal activity against Brugia malayi in Mastomys at a dosage of 50 mg/kg x 5 administered intraperitoneally at a day of 63. Format: functional. The following applies: route intraperitoneal.
Assay [13] concerns Mastomys natalensis. The assay is described as follows: Filaricidal activity against Dipetalonema viteae in Mastomys at a dosage of 300 mg/kg x 5 administered orally at a day of 8. The class given is functional. The following applies: route oral.
Assay [14] deals with Rattus norvegicus. The assay is described as follows: Anthelmintic activity against Hymenolepis nana in rats at a dose of 400x3 mg/kg administered perorally. Format: functional.
Assay [15] relates to Mastomys natalensis. The experiment in a line: Filaricidal activity against Dipetalonema viteae in Mastomys at a dosage of 300 mg/kg x 5 administered orally at a day of 21. The class given is functional. The note with it: route oral.
Assay [16] relates to Mastomys natalensis. The assay is described as follows: Filaricidal activity against Brugia malayi in Mastomys at a dosage of 200 mg/kg x 5 administered orally at a day of 8. Format: functional. The note with it: route oral.
Assay [17] concerns Mastomys natalensis. The experiment in a line: Filaricidal activity against Dipetalonema viteae in Mastomys at a dosage of 300 mg/kg x 5 administered orally at a day of 42. The note with it: route oral. The class given is functional.
Assay [18] has as its system Mastomys natalensis. The assay is described as follows: Filaricidal activity against Dipetalonema viteae in Mastomys at a dosage of 6.25 mg/kg x 5 administered subcutaneous at a day of 21. Format: functional.
In assay [19] the test system is Sigmodon hispidus. The experiment in a line: Filaricidal activity against Litomosoides carinii in cotton rats at a dosage of 10 mg/kg x 5 administered intraperitoneally at a day of 8. The note with it: route intraperitoneal.
The test system of assay [20] is Mastomys natalensis. The experiment in a line: Filaricidal activity against Brugia malayi in Mastomys at a dosage of 200 mg/kg x 5 administered orally at a day of 21. The class given is functional. The note with it: route oral.
Assay [21] has as its system Mastomys natalensis. The experiment in a line: Filaricidal activity against Dipetalonema viteae in Mastomys at a dosage of 6.25 mg/kg x 5 administered subcutaneous at a day of 42. Format: functional.
Assay [22] deals with Mastomys natalensis. The experiment in a line: Filaricidal activity against Dipetalonema viteae in Mastomys at a dosage of 6.25 mg/kg x 5 administered subcutaneous at a day of 8. Format: functional.
Assay [23] concerns Rattus norvegicus. The experiment in a line: Filaricidal activity against Litomosoides carinii in cotton rats at a dosage of 300 mg/kg x 5 administered orally at a day of 42. Format: functional. The note with it: route oral.
The test system of assay [24] is Mastomys natalensis. The experiment in a line: Filaricidal activity against Brugia malayi in Mastomys at a dosage of 200 mg/kg x 5 administered orally. Format: functional. The note with it: route oral.
The subject of assay [25] is Litomosoides carinii. The experiment in a line: Filaricidal activity against Litomosoides carinii in cotton rats at a dosage of 300 mg/kg x 5 administered orally. The following applies: route oral.
In assay [26] the test system is Cricetinae gen. sp. The assay is described as follows: Anthelmintic activity against Ancylostoma ceylanicum (hook worm) in hamsters at a dose of 1x 1 mg/kg administered perorally. The class given is functional, Cricetulus griseus. The following applies: route oral.
Assay [27] concerns Cricetinae gen. sp. The experiment in a line: Anthelmintic activity against Ancylostoma ceylanicum in hamsters at a dose of 0.5x1 mg/kg administered perorally. The class given is functional, Cricetulus griseus.
Assay [28] relates to Rattus norvegicus. The assay is described as follows: Filaricidal activity against Litomosoides carinii in cotton rats at a dosage of 10 mg/kg x 5 administered intraperitoneally at a day of 42. The class given is functional. The note with it: route intraperitoneal.
Assay [29] concerns Mastomys natalensis. The experiment in a line: Filaricidal activity against Dipetalonema viteae in Mastomys at a dosage of 6.25 mg/kg x 5 administered subcutaneous. Format: functional.
For assay [30], the system named is Sigmodon hispidus. The experiment in a line: Filaricidal activity against Litomosoides carinii in cotton rats at a dosage of 10 mg/kg x 5 administered intraperitoneally at a day of 42. The note with it: route intraperitoneal.
Assay [31] relates to Rattus norvegicus. The assay is described as follows: Filaricidal activity against Litomosoides carinii in cotton rats at a dosage of 300 mg/kg x 5 administered orally at a day of 21. Format: functional. The note with it: route oral.
In assay [32] the test system is Mus musculus. The assay is described as follows: Anthelmintic activity against Syphacia obvelata in mice at a dose of 100x1 mg/kg administered perorally. Format: functional.
Assay [33] concerns Mus musculus. The experiment in a line: Anthelmintic activity against Syphacia obvelata in mice at a dose of 50x1 mg/kg administered perorally. Format: functional.
Assay [34] deals with Mastomys natalensis. The assay is described as follows: Filaricidal activity against Brugia malayi in Mastomys at a dosage of 200 mg/kg x 5 administered orally at a day of 91. The class given is functional. The following applies: route oral.
The test system of assay [35] is Sigmodon hispidus. The experiment in a line: Filaricidal activity against Litomosoides carinii in cotton rats at a dosage of 10 mg/kg x 5 administered intraperitoneally at a day of 21. The note with it: route intraperitoneal.
Assay [36] has as its system Mastomys natalensis. The assay is described as follows: Filaricidal activity against Brugia malayi in Mastomys at a dosage of 200 mg/kg x 5 administered orally at a day of 42. Format: functional. The note with it: route oral.
In assay [37] the test system is Mastomys natalensis. The assay is described as follows: Filaricidal activity against Dipetalonema viteae in Mastomys at a dosage of 300 mg/kg x 5 administered orally. The class given is functional. The note with it: route oral.
Assay [38] deals with Rattus norvegicus. The assay is described as follows: Filaricidal activity against Litomosoides carinii in cotton rats at a dosage of 300 mg/kg x 5 administered orally at a day of 8. The note with it: route oral. The class given is functional.
Assay [39] has as its system Cricetinae gen. sp. The assay is described as follows: Anthelmintic activity against Ancylostoma ceylanicum in hamsters at a dose 1x 1 mg/kg administered perorally. Format: functional, Cricetulus griseus. The note with it: route oral.
The test system of assay [40] is Mastomys natalensis. The assay is described as follows: Filaricidal activity against Brugia malayi in Mastomys at a dosage of 200 mg/kg x 5 administered orally at a day of 63. The class given is functional. The note with it: route oral.

For `CCN(CC)C(=O)N1CCN(C)CC1` [DIETHYLCARBAMAZINE], the Removal of microfilariae in assay [1] is recorded as 51.6%; in [3] it was 95.9%; in assay [4] it was 91.6%; in assay [6], 94.1%; in [7] it was 99.6%; in assay [8], 88.6%. The Removal of microfilariae is on record as 90.7% in [9], 97.1% in assay [10] and 71.6% in assay [12]. The figures for the Death in assay [2], in assay [5] and in [11] were 0%, 0% and 57.8%, respectively.
In the case of `COC(=O)Nc1nc2cc(C(=O)c3ccccc3)ccc2[nH]1` [MEBENDAZOLE], the Removal of microfilariae in assay [13] is given as 0%; in assay [15], 85.5%; in assay [16], 0%; in [17] it was 100%; in assay [18], 100%; in [19], 58.6%. Also, the Removal of microfilariae in assay [20] stood at 0%; in assay [21], 100%; in assay [22], 53.1%; in assay [23] it was 74.3%; in assay [3], 0%; in assay [4] it was 100%. The Removal of microfilariae in [8] is 65.3%; in [9], 100%; in assay [30] it was 100%; in [31], 57.7%; in assay [34], 0%; in assay [35], 96.3%. Further, the Removal of microfilariae in assay [36] turned out to be 0%; in assay [38], 48.8%; in [40], 0%; in assay [12], 100%. The Animals cured was 0% in assay [14]; 37.5% in assay [27]; 66.6% in assay [32]; 0% in assay [33]; 100% in assay [39]. In addition, the Death came to 0% in [24]; 33.8% in assay [25]; 100% in [28]; 100% in assay [29]; 100% in assay [11]; 85.4% in [37]. Further, the Worm reduction was determined as 100% in assay [26] and 72% in assay [27].
